# Patent US20240382489A1, “LIQUID PHARMACEUTICAL COMPOSITION” (Verona Pharma PLC, priority 2023, published 2024)
# Tested on: patients aged 40-80 years with moderate to severe COPD
# Experiment: Clinical study of nebulised ensifentrine vs placebo in COPD: lung function (FEV1)
# Type: in vivo, human
# Settings: 3 mg BID by nebuliser
# Procedure: A clinical study was conducted to determine the efficacy of ensifentrine in treating COPD compared with placebo. Ensifentrine was administered by nebuliser at a dose of 3 mg twice daily (BID) for 24 weeks. The study was a multi-centre, randomized, double-blind, parallel-group, placebo-controlled trial with around 800 patients and 5:3 randomization.
# The study population included patients aged 40-80 years with moderate to severe COPD (FEV130%-70% p.n., FEV1/forced vital capacity (FVC) ratio<0.7, with mMRC≥2). The randomization stratified (a) the use of stable background maintenance LAMA or LABA therapy use (approx. 50%. yes or no) and (b) cigarette smoking (current or former). Inhaled corticosteroid (ICS) maintenance therapy was permitted in up to 20% of patients under certain provisions.
# The primary endpoint of the study was change from baseline in average FEV1 area under the curve (AUC)0-12 h post-dose at week 12. Secondary endpoints of the study included: peak FEV1 over 4 hours post-dose at Week 12; morning trough FEV1 at Week 12; and other endpoints including moderate/severe COPD exacerbations frequency over 24 Weeks.
# Baseline FEV1 is the mean of the two measurements taken before study medication on the day of first dosing, i.e., ≤40 minutes and just prior to dosing, both pre-dose on day 1. […]
compound,measurement,value
"COc1cc2c(cc1OC)-c1c/c(=N\c3c(C)cc(C)cc3C)n(CCNC(N)=O)c(=O)n1CC2 [Ensifentrine, N-(2-{(2E)-9,10-dimethoxy-4-oxo-2-[(2,4,6-trimethylphenyl)imino]-6,7-dihydro-2H-pyrimido[6,1-a]isoquinolin-3(4H)-yl}ethyl)urea]",improvement in lung function in all subgroups of COPD patients,statistically significant improvement in lung function
